In patent US6573275B1, “Bicyclic amines” (Syngenta Limited, priority 1995, dated 2003):

Test system: peach aphid (Myzus persicae)
Test: Insecticidal test against peach aphid, infested Chinese cabbage leaves sprayed
Assay type: in vivo
Conditions: peach aphid (Myzus persicae) on Chinese cabbage leaves, sprayed with 500 ppm composition unless otherwise stated, mortality assessed after 3 days
Summary of the method: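 Aphid-infested Chinese cabbage leaves were sprayed with compound at 500 ppm unless otherwise stated, formulated in acetone/ethanol diluted with water containing 0.05% Synperonic NP8. Mortality was assessed after 3 days.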

C=COC(=O)N1C2CCC1CC(C#N)(c1cncc(I)c1)C2 (stereo not drawn) [Compound 309, exo-3-(5-iodopyrid-3-yl)-endo-3-cyano-8-(vinyloxycarbonyl)-8-azabicyclo[3.2.1]octane] was tested. Which “Score (grading of mortality)” value did it give?
The value was “A (A indicates 80-100% mortality)”.
